Reference: patent publication US20260123631A1, “NATURAL PORPHIN SALT AND USE THEREOF AS PLANT GROWTH REGULATOR AND PLANT IMMUNITY INDUCER” (NANJING BOSTEC BIOLOGICAL ENGINEERING CO., LTD, priority 2022, published 2026)

Assays:
[1] = Dilution and pH determination for sample solutions; type: physicochemical
Description: Method: 0.2500 g of a sample was accurately weighed and added to a 25 mL volumetric flask, dissolved with purified water, and diluted to a specified scale to prepare a 1.00% (10,000.0 ppm) initial solution. The initial solution was diluted with purified water in different ratios to prepare a series of solutions with a concentration of 1,000.0 ppm to 0.1 ppm. A pH value of each sample was determined three times.

mung bean seedlings = assay: Inducing adventitious roots from hypocotyls of mung bean; type: in vivo; settings: day 7
Description: Test solution preparation: 8 mL of a commercially-available STANLEY universal hydroponic nutrient solution was taken and diluted with tap water to 3,200 mL (400-fold dilution) to produce a dilute nutrient solution. An appropriate amount of each of salt samples such as protoporphyrin disodium and potassium chlorhematin was weighed and prepared with the dilute nutrient solution into 0.010 ppm and 0.1 ppm sample test solutions, and 150 mL of each test solution was taken. 150 mL of the dilute nutrient solution was taken as a blank control. The test solutions and the control solution were placed in brown bottles, and the brown bottles were sealed with a black film. Mung bean seedlings with uniform growth and a seedling height of 7 cm to 8 cm were selected, and cut at 3 cm below a first true leaf node. 8 mung bean seedlings were inserted into each bottle (with roots removed) to make lower radicles soaked in a solution. Mung bean seedlings were treated at room temperature of 20° C. to 25° C. for 7 d in total, during which the solution was changed every 2 d. On day 2 to day 3 of the treatment, there was a significant difference. On day 7, the observation and determination were conducted. An average adventitious root number and an average total adventitious root length for each seedling were calculated, and results were shown in the following table: […]

[2] = Stability of sample solutions in the dark/under light; type: physicochemical
Summary of the method: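 Salt in water, or acidic reference in 30–50% aqueous ethanol, at about 10 ppm; UV absorbance scanned 200–800 nm at 0, 1, 2, 3 h, stored at 25° C dark or under 30,000 lux light. Relative content = max-peak absorbance at each time divided by 0 h value (100%).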

wheat [3] = assay: Spraying on wheat to increase a yield; type: in vivo, wheat (Huaimai 35)
Description: Crop: Huaimai 35. […] On Jun. 11, 2021, the harvesting was conducted throughout the field at a time.

mosaic virus = assay: Controlling diseases in tobacco by spraying; type: in vivo, tobacco (Yunyan 87); settings: 0.20 ppm sprayed twice, 30 L/mu
Text: For each treatment, 4 plots relatively scattered were selected from the field, with each plot of 50 m^2. An agent was sprayed twice around May 28 and June 4 during a root-spreading stage (12 leaves to 14 leaves) after tobacco transplanting, respectively. A same spraying volume (30 L/mu) was adopted for each treatment. During the spraying operation, each leaf surface should be sprayed evenly without dead corners left.
On July 15, tobacco plants in all treatment plots were surveyed. An incidence grading survey was conducted according to the Grade and investigation method of tobacco diseases and insect pests GB/T23222-2008, and an incidence rate and a disease index were counted for each treatment plot.

pepper = assay: Spraying on pepper to increase a yield; type: in vivo, pepper (Hebei Jize pepper); settings: for Average fruit number / Single-fruit weight / Yield per mu: 1.5 mg/mu sprayed twice (0.1 ppm and 0.05 ppm); for Yield increase rate: 1.5 mg/mu sprayed twice, versus clear water
Description: Experimental method: A land area of 10 mu was adopted for each of experimental and control groups. A treatment group was sprayed with a potassium hematin solution, a control group was sprayed with heme (at the same dose concentration as the treatment group), and a blank was sprayed with clear water. On May 19 (after transplanting) and July 2 (blooming stage), an agent was sprayed at 1.5 mg/mu in the treatment and control groups, with water amounts per mu respectively as follows: 15 L and 30 L (sample concentrations: 0.1 ppm and 0.05 ppm). On September 13, 10 pepper plants with uniform growth were selected from each of the treatment group and the control group, and fruit numbers and single-fruit weights were counted. The whole field was harvested in three batches on August 30, September 13, and September 25, respectively. Yields were subjected to combined statistics and comparison, and results were as follows: […]

wheat [4] = assay: Germination of wheat and growth of seedlings; type: in vivo, wheat (Huaimai 35); settings: for Root length / Root number / Root weight / Seedling height / Seedling weight: wheat seedlings
Description: Method: 3 replicates were set for each treatment. 50 full seeds with a consistent size were selected each time for each sample, disinfected with sodium hypochlorite for 5 min, rinsed with clear water, and placed in a plastic box filled with 100 g of a sand. 25 mL of a prepared sample solution was poured into the plastic box, and the seeds were arranged regularly. The plastic box was covered with a lid, and then incubated in a 25° C. incubator. The germination was determined when a length of a sprout of a wheat seed exceeded a half of a diameter (long axis) of the wheat seed (determination criterion). According to the growth of wheat, the germ exposure of seeds and the number of germinated seeds were recorded every day. On day 6, 10 wheat seedlings were randomly selected, and a root length, a plant height, and a root number were determined. On day 7, a root weight and an aboveground part weight were determined. All index data was produced based on 3 replicates.

[5] = Water solubility of the prepared salts; type: physicochemical
[6] = under light 30,000 lux, 1 h, salts in water, acidic reference in 30% to 50% ethanol
[7] = under light 30,000 lux, 2 h, salts in water, acidic reference in 30% to 50% ethanol
[8] = under light 30,000 lux, 3 h, salts in water, acidic reference in 30% to 50% ethanol
[9] = 3 mg/mu sprayed 3 times (0.2, 0.1, 0.1 ppm)

With `C=CC1=C(C)c2cc3[nH]c(cc4nc(cc5[nH]c(cc1n2)c(C)c5CCC(=O)O)C(CCC(=O)O)=C4C)c(C)c3C=C` [Protoporphyrin disodium, protoporphyrin disodium, reference compound] the pH ([1]; 0.1 ppm in purified water) was “(6.61)”, the pH ([1]; 1.0 ppm in purified water) was “(6.67)” and the pH ([1]; 10.0 ppm in purified water) was “(7.21)”. For the same compound, the pH ([1]; 20.0 ppm in purified water) was “(7.37)”, the pH ([1]; 30.0 ppm in purified water) was “(7.50)” and the pH ([1]; 100.0 ppm in purified water) was “(8.05)”. For the same compound, the pH ([1]; 1000.0 ppm in purified water) was “(9.25)”, the pH ([1]; 10000.0 ppm in purified water) was “(10.60)” and the Adventitious root number (mung bean seedlings; 0.01 ppm) was 9.61 root/seedling. The “Total adventitious root length” value (mung bean seedlings; 0.01 ppm) was 20.74 cm/seedling, the Adventitious root number (mung bean seedlings; 0.1 ppm) was 9.77 root/seedling and the “Total adventitious root length” value (mung bean seedlings; 0.1 ppm) was 21.30 cm/seedling. For the same compound, the Relative content [2, 6] was 63.47%, the Relative content [2, 7] was 62.74% and the Relative content [2, 8] was 57.05%.
In the case of iron chlorin [reference compound], the “Actual yield per mu” value (wheat [3]; [9]) is reported as 586.9 kg, the “Ear number per mu” value (wheat [3]; [9]) is reported as 31.5 10,000 and the “Grain number per ear” value (wheat [3]; [9]) is reported as 34.6 grains/ear. The Thousand-grain weight (wheat [3]; [9]) was 53.9 g, the “Yield increase rate per mu” value (wheat [3]; 3 mg/mu sprayed 3 times, versus clear water) was 4.99% and the Disease index (mosaic virus) was 8.90. For the same compound, the Relative control effect (mosaic virus) was 65.57%, the Relative content ([2]; in the dark, 25° C., 0 h) was 100.0% and the Relative content ([2]; in the dark, 25° C., 1 h) was 99.25%. For the same compound, the Relative content ([2]; in the dark, 25° C., 2 h) was 99.26%, the Relative content ([2]; in the dark, 25° C., 3 h) was 99.20% and the Relative content ([2]; under light 30,000 lux, 0 h) was 100.00%. The Relative content [2, 6] was 31.04%, the Relative content [2, 7] was 28.12% and the Relative content [2, 8] was 23.73%.
With `C=CC1=C(C)c2cc3[n-]c(cc4[n-]c(cc5nc(cc1n2)C(C)=C5C=C)c(C)c4CCC(=O)O)c(CCC(=O)O)c3C.[Cl-].[Fe+3]` [Chlorhematin, chlorhematin, reference compound] the Adventitious root number (mung bean seedlings; 0.01 ppm) was 11.07 root/seedling, the “Total adventitious root length” value (mung bean seedlings; 0.01 ppm) was 18.03 cm/seedling and the Adventitious root number (mung bean seedlings; 0.1 ppm) was 10.33 root/seedling. The “Total adventitious root length” value (mung bean seedlings; 0.1 ppm) was 18.28 cm/seedling, the Relative content ([2]; in the dark, 25° C., 0 h) was 100.00% and the Relative content ([2]; in the dark, 25° C., 1 h) was 99.55%. It also gave a Relative content ([2]; in the dark, 25° C., 2 h) of 99.24%, a Relative content ([2]; in the dark, 25° C., 3 h) of 98.65% and a Relative content ([2]; under light 30,000 lux, 0 h) of 100.00%. The Relative content [2, 6] was 27.73%, the Relative content ([2]; under light 30,000 lux, 1 h, salts in water, acidic reference in 30% to 50% ethanol, listed as chlorhematin) was “less than 30%” and the Relative content [2, 7] was 21.64%. The Relative content [2, 8] was 20.21%, the Average fruit number (pepper) was 49.2 fruits/plant and the Single-fruit weight (pepper) was 18.6 g/fruit. For the same compound, the Yield per mu (pepper) was 2833.3 kg/mu and the Yield increase rate (pepper) was 5.33%.
With `C=CC1=C(C)c2cc3[n-]c(cc4nc(cc5[n-]c(cc1n2)c(C)c5C=C)C(C)=C4CCC(=O)[O-])c(CCC(=O)[O-])c3C.[Cl-].[Fe+3].[K+].[K+]` [Example 10, potassium chlorhematin] the pH ([1]; 0.1 ppm in purified water) was “(6.85)”, the pH ([1]; 1.0 ppm in purified water) was “(6.90)” and the pH ([1]; 10.0 ppm in purified water) was “(7.33)”. For the same compound, the pH ([1]; 20.0 ppm in purified water) was “(7.45)”, the pH ([1]; 30.0 ppm in purified water) was “(7.57)” and the pH ([1]; 100.0 ppm in purified water) was “(8.10)”. The pH ([1]; 1000.0 ppm in purified water) was “(9.43)”, the pH ([1]; 10000.0 ppm in purified water) was “(10.21)” and the Adventitious root number (mung bean seedlings; 0.01 ppm) was 14.85 root/seedling. For the same compound, the “Total adventitious root length” value (mung bean seedlings; 0.01 ppm) was 26.83 cm/seedling, the Adventitious root number (mung bean seedlings; 0.1 ppm) was 14.02 root/seedling and the “Total adventitious root length” value (mung bean seedlings; 0.1 ppm) was 25.21 cm/seedling. For the same compound, the “Germination rate of wheat” value (wheat [4]; 0.0025 ppm) was 94.0%, the Root length (wheat [4]; 0.0025 ppm) was 10.01 cm and the Root number (wheat [4]; 0.0025 ppm) was 5.1. For the same compound, the Root weight (wheat [4]; 0.0025 ppm) was 0.1163 g, the Seedling height (wheat [4]; 0.0025 ppm) was 9.42 cm and the Seedling weight (wheat [4]; 0.0025 ppm) was 0.298 g. The “Germination rate of wheat” value (wheat [4]; 0.0250 ppm) was 94.7%, the Root length (wheat [4]; 0.0250 ppm) was 9.74 cm and the Root number (wheat [4]; 0.0250 ppm) was 5.2. The Root weight (wheat [4]; 0.0250 ppm) was 0.1143 g, the Seedling height (wheat [4]; 0.0250 ppm) was 9.56 cm and the Seedling weight (wheat [4]; 0.0250 ppm) was 0.286 g. The “Germination rate of wheat” value (wheat [4]; 0.2500 ppm) was 97.3%, the Root length (wheat [4]; 0.2500 ppm) was 9.15 cm and the Root number (wheat [4]; 0.2500 ppm) was 5.3. It also gave a Root weight (wheat [4]; 0.2500 ppm) of 0.1036 g, a Seedling height (wheat [4]; 0.2500 ppm) of 7.51 cm and a Seedling weight (wheat [4]; 0.2500 ppm) of 0.211 g. The Relative content [2, 6] was 90.91%, the Relative content [2, 7] was 90.08% and the Relative content [2, 8] was 81.82%. The solubility in water [5] was “easily soluble”, the Average fruit number (pepper) was 50.5 fruits/plant and the Single-fruit weight (pepper) was 18.5 g/fruit. It also gave a Yield per mu (pepper) of 2975.0 kg/mu and a Yield increase rate (pepper) of 10.59%.
